US9518038B2, “Condensation product of theanine derivative and carboxylic acid coumarin derivative, its intermediate, preparation method and use thereof” (SHANDONG YINGDONG YINGHAO BIOTECHNOLOGY, INC., priority 2012, dated 2016)
Values joined by “and” are separate entries in the source; they are usually repeats but may differ in a detail not shown here. Equal entries are not always repeated. Where two headings read alike, the source gives them in different places. One block for each compound: values may come before it.

Legend:
[1] = system: human breast cancer cells MCF-7; experiment: MTT growth inhibition, MCF-7 cells; type: cell-based; details: MCF7, 72 h after treatment, read-out: Drug concentration (IC50) at which 50% cancer cells survived
From the text: (§1) Cell lines and cell culture: human lung cancer cells A549 and H460, human breast cancer cells MCF-7 and MDA-MB-231, human gastric cancer cells BGC-823, human prostate cancer cells PC-3, human chronic leukemia cells K562, human lymphoma cells U937, human liver cancer cells SMMC7721 and HepG2, human colon cancer cells HT29, human pancreatic cancer cells PANC-1 and BxPC3, human cervical cancer Hela cell lines, human brain tumor cells Daoy, human neuroma cells D54 and human oral epidermoid cancer cells KBV200 line with strong drug resistance, mouse melanoma cells B16, and highly metastatic Lewis lung cancer cell lines were purchased from American Type Culture Collection of the U.S. These cells were cultured with DMEM and RPMI-1640 culture solutions separately.
(§2) The procedure was as follows:
(§3) (1) 0.25% trypsin was used to digest cancer cells in a logarithmic growth phase to prepare a single-cell suspension, the concentration of cells was adjusted to 5×10^4/mL, and the adjusted suspension was inoculated into a 96-well culture plate with 100 μl per well;
(§4) (2) The culture plate was transferred into a 37° C. incubator with a saturated humidity and 5% of CO2 and cultured for 24 h; the compounds and the intermediates thereof obtained in embodiments 1-7 and the compound as represented by formula (IIIa) or the positive control anti-cancer drug with the concentration of 1-1000 μM/L were added to enable the final concentration to be 0.1-1500 μM/L. Control wells (only added with 200 μl of cell suspension) and drug-free blank control wells (containing the solvent of 0.01% DMSO) were set, each group included 8 wells, and the plate was placed into the 37° C. incubator with saturated humidity and 5% of CO2 for culturing;
(§5) (3) The 96-well plate was taken out at 48 h and 72 h after dosing, the original culture medium was carefully removed by suction, 100 μl of serum-free DMEM culture medium and 10 μl of MTT (5 mg/mL) solution were added in each well. The plate was continuously cultured for another 4 h and then the culture was terminated;
(§6) (4) The supernatant in the wells was carefully removed by suction, each well was added with 150 μl of DMSO and shaked at room temperature for 10-15 min to fully dissolve crystals.
(§7) (5) Colorimetric analysis: the wavelength was selected as 570 nm, the light absorbance (A value) of each well was determined on the microplate reader and the results were recorded; the experiment was repeated for three times;
(§8) (6) the experimental results were calculated according to the following formula: relative survival rate=(A value of each experimental group/A value of cell control group)×100%
(§9) Calculation of median-effect concentration (IC50, namely the drug concentration at which the inhibition rate is 50%, also known as half inhibitory concentration):
(§10) IC50 of the detected component was calculated by using a regression equation.

[2] = system: human pancreatic cancer cells BxPC3; experiment: MTT growth inhibition, BxPc3 cells; type: cell-based; details: Homo sapiens, BXPC-3, 72 h after treatment, read-out: Drug concentration (IC50) at which 50% cancer cells survived
From the text: as §1, §2, §3, §4, §5, §6, §7, §8, §9, §10

[3] = system: human colon cancer cells HT29; experiment: MTT growth inhibition, HT29 cells; type: cell-based; details: HT-29, 72 h after treatment, read-out: Drug concentration (IC50) at which 50% cancer cells survived
From the text: as §1, §2, §3, §4, §5, §6, §7, §8, §9, §10

[4] = system: human breast cancer cells MDA-MB-231; experiment: MTT growth inhibition, MDA-MB-231 cells; type: cell-based; details: 72 h after treatment, read-out: Drug concentration (IC50) at which 50% cancer cells survived
From the text: as §1, §2, §3, §4, §5, §6, §7, §8, §9, §10

[5] = system: human liver cancer cells SMMC7721; experiment: MTT growth inhibition, SMMC7721 cells; type: cell-based; details: SMMC-7721, S-7721 (SMMC7721), 72 h after treatment, read-out: Drug concentration (IC50) at which 50% cancer cells survived
From the text: as §1, §2, §3, §4, §5, §6, §7, §8, §9, §10

[6] = system: human liver cancer cells HepG2; experiment: MTT growth inhibition, HepG2 cells; type: cell-based; details: 72 h after treatment, read-out: Drug concentration (IC50) at which 50% cancer cells survived
From the text: as §1, §2, §3, §4, §5, §6, §7, §8, §9, §10

[7] = system: human lung cancer cells H460; experiment: MTT growth inhibition, H460 cells; type: cell-based; details: NCI-H460, 72 h after treatment, read-out: Drug concentration (IC50) at which 50% cancer cells survived
From the text: as §1, §2, §3, §4, §5, §6, §7, §8, §9, §10

[8] = system: human oral epidermoid cancer cells KBV200; experiment: MTT growth inhibition, KBV200 cells; type: cell-based; details: 72 h after treatment, read-out: Drug concentration (IC50) at which 50% cancer cells survived
From the text: as §1, §2, §3, §4, §5, §6, §7, §8, §9, §10

[9] = system: human pancreatic cancer cells PANC-1; experiment: MTT growth inhibition, PANC-1 cells; type: cell-based; details: 72 h after treatment, read-out: Drug concentration (IC50) at which 50% cancer cells survived
From the text: as §1, §2, §3, §4, §5, §6, §7, §8, §9, §10

[10] = system: human lymphoma cells U937; experiment: MTT growth inhibition, U937 cells; type: cell-based; details: Homo sapiens, U-937, 72 h after treatment, read-out: Drug concentration (IC50) at which 50% cancer cells survived
Procedure: as §2, §5, §6, §7, §8, §10

[11] = system: human prostate cancer cells PC-3; experiment: MTT growth inhibition, PC-3 cells; type: cell-based; details: 72 h after treatment, read-out: Drug concentration (IC50) at which 50% cancer cells survived
From the text: as §1, §2, §3, §4, §5, §6, §7, §8, §9, §10

[12] = system: human cervical cancer Hela cell lines; experiment: MTT growth inhibition, Hela cells; type: cell-based; details: Homo sapiens, 72 h after treatment, read-out: Drug concentration (IC50) at which 50% cancer cells survived
From the text: as §1, §2, §3, §4, §5, §6, §7, §8, §9, §10

[13] = system: mouse melanoma cells B16; experiment: MTT growth inhibition, B16 cells; type: cell-based; details: Mus musculus, 72 h after treatment, read-out: Drug concentration (IC50) at which 50% cancer cells survived
From the text: as §1, §2, §3, §4, §5, §6, §7, §8, §9, §10

[14] = system: highly metastatic Lewis lung cancer cell lines; experiment: MTT growth inhibition, LLC cells; type: cell-based, mouse; details: Mus musculus, Lewis lung carcinoma, 72 h after treatment, read-out: Drug concentration (IC50) at which 50% cancer cells survived
From the text: as §1, §2, §3, §4, §5, §6, §7, §8, §9, §10

[15] = system: human chronic leukemia cells K562; experiment: MTT growth inhibition, K562 cells; type: cell-based; details: 72 h after treatment, read-out: Drug concentration (IC50) at which 50% cancer cells survived
From the text: as §1, §2, §3, §4, §5, §6, §7, §8, §9, §10

[16] = system: Caski human cervical cancer cells; experiment: MTT growth inhibition, Caski cells; type: cell-based; details: Ca-Ski, 72 h after treatment, read-out: Drug concentration (IC50) at which 50% cancer cells survived
[17] = system: human gastric cancer cells BGC-823; experiment: MTT growth inhibition, BGC-823 cells; type: cell-based; details: 72 h after treatment, read-out: Drug concentration (IC50) at which 50% cancer cells survived
From the text: as §1, §2, §3, §4, §5, §6, §7, §8, §9, §10

[18] = system: human brain tumor cells Daoy; experiment: MTT growth inhibition, Daoy cells; type: cell-based; details: Homo sapiens, 72 h after treatment, read-out: Drug concentration (IC50) at which 50% cancer cells survived
From the text: as §1, §2, §3, §4, §5, §6, §7, §8, §9, §10

[19] = system: human lung cancer cells A549; experiment: MTT growth inhibition, A549 cells; type: cell-based; details: 72 h after treatment, read-out: Drug concentration (IC50) at which 50% cancer cells survived
From the text: as §1, §2, §3, §4, §5, §6, §7, §8, §9, §10

[20] = system: human neuroma cells D54; experiment: MTT growth inhibition, D54 cells; type: cell-based; details: Homo sapiens, 72 h after treatment, read-out: Drug concentration (IC50) at which 50% cancer cells survived
From the text: as §1, §2, §3, §4, §5, §6, §7, §8, §9, §10

[21] = target: T1, EZH2 (Homo sapiens, UniProt Q15910); experiment: EZH2 enzyme activity in protein extracts of human tumor xenografts of treated mice (EZH2 Assay Kit); type: in vivo; details: tumors excised 6 h after medication, SAHA 25 mg/kg; for inhibition: read-out: decrease of EZH2 enzyme activity/inhibition rate
T1 construct: the EZH2 enzyme was replaced with tumor protein extracts in each group; from tissue; host or cells: human tumour xenografts excised from treated nude mice

[22] = target: T2, EZH2 (Mus musculus, UniProt Q61188); experiment: EZH2 enzyme activity in protein extracts of LLC tumors of treated mice (EZH2 Assay Kit); details: mouse; LLC tumor grown in vivo; tumors excised 6 h after medication; SAHA 25 mg/kg; read-out: decrease of EZH2 enzyme activity/inhibition rate
T2 construct: the EZH2 enzyme was replaced with tumor protein extracts in each group; from tissue; host or cells: Lewis lung cancer tumours from treated mice
T2 sequence (Q61188 whole entry): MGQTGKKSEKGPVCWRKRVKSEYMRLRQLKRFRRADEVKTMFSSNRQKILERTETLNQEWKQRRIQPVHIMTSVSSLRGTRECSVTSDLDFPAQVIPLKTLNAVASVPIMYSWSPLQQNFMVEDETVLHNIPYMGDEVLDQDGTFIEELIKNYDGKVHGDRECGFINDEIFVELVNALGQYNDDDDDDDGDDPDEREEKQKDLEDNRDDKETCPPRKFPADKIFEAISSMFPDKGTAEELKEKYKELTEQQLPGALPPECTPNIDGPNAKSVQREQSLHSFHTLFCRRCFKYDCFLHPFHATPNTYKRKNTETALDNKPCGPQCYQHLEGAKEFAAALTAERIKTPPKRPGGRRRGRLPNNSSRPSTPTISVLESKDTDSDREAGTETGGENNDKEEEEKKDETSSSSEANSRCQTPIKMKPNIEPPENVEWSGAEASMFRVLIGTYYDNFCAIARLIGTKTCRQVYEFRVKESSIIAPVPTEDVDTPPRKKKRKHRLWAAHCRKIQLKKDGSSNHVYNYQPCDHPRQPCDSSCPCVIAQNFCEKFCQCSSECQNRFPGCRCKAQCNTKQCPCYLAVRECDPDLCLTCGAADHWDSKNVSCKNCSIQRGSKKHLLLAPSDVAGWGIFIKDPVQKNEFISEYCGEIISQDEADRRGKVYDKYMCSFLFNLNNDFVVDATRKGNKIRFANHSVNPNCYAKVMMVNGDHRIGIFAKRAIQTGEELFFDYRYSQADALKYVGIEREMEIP
T2 sequence (Q921E6 whole entry partner): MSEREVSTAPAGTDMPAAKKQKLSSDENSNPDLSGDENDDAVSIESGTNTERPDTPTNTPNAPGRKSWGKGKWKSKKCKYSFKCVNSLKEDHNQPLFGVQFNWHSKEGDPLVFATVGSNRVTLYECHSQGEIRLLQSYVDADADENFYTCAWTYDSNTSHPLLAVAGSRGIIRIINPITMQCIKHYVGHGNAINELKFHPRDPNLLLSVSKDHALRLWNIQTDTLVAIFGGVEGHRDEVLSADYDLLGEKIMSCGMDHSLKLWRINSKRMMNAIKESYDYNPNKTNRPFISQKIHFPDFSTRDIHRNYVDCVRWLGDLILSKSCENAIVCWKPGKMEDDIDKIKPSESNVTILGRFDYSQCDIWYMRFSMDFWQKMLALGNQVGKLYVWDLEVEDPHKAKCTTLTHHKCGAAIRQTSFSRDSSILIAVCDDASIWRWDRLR
T2 sequence (Q80U70 whole entry partner): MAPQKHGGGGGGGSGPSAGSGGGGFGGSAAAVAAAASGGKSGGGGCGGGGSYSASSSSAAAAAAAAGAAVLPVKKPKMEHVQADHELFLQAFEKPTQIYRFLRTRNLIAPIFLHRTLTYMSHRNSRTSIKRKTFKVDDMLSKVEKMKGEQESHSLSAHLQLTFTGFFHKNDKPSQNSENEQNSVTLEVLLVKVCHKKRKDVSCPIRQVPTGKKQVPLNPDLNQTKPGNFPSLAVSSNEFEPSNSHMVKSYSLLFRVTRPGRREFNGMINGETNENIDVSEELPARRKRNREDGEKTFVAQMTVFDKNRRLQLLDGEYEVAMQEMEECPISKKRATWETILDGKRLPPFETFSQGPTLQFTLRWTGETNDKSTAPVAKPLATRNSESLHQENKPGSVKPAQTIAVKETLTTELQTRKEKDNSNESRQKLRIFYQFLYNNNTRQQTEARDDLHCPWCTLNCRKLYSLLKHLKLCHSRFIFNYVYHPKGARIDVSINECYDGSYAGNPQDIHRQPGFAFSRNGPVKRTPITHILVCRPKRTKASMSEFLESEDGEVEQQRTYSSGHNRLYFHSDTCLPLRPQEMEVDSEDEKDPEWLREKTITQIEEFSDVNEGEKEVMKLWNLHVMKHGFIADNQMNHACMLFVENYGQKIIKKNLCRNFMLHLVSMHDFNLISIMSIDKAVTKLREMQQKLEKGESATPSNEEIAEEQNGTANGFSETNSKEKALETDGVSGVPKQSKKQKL

T1 sequence (Q15910 whole entry): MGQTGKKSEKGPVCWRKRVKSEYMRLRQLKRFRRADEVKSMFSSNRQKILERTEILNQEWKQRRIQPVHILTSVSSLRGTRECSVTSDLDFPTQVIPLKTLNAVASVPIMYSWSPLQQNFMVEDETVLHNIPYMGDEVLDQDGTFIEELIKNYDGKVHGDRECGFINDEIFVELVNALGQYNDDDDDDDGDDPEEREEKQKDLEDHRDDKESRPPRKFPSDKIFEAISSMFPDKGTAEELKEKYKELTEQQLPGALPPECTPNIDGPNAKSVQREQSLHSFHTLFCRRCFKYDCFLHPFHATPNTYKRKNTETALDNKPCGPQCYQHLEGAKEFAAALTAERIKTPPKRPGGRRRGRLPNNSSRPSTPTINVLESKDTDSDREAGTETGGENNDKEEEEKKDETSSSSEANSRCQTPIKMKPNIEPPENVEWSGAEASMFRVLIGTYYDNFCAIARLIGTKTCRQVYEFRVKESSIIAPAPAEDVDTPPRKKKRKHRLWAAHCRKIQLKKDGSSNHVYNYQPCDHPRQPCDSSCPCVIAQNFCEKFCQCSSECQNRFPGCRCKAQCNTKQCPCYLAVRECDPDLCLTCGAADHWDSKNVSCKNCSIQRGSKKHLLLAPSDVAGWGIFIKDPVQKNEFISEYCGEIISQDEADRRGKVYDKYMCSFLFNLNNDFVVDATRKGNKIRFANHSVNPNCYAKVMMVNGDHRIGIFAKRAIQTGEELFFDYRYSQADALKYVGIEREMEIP
T1 sequence (O75530 whole entry partner): as the sequence (Q921E6 whole entry partner) above
T1 sequence (Q15022 whole entry partner): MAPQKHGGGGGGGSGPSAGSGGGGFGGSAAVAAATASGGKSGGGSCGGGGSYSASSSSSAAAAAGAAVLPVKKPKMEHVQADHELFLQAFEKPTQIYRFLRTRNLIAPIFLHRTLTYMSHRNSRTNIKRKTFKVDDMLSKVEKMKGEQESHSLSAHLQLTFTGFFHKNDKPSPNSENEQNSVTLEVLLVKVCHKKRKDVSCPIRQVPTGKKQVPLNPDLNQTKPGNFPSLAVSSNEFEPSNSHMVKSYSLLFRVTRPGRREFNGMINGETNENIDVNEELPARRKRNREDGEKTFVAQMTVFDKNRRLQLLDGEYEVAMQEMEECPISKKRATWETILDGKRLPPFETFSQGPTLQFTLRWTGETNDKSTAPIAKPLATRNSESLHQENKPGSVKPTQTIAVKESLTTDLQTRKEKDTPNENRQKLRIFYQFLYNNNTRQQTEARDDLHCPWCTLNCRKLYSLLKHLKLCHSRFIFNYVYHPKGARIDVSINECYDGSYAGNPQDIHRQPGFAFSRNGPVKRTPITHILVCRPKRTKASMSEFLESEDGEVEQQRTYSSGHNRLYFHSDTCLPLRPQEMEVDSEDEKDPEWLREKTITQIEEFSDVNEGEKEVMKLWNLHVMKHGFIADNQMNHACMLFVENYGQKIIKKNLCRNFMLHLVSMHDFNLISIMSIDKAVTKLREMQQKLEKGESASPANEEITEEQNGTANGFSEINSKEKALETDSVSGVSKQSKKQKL

SMILES: O=C(O)c1cc2cc([N+](=O)[O-])ccc2oc1=O [Compound IIIf, 6-nitrocoumarin-3-carboxylic acid]
IC50 [1]: 400 µM | IC50 [2]: 114 µM | IC50 [3]: 460 µM | IC50 [4]: 470 µM | IC50 [5]: 460 µM | IC50 [6]: 360 µM | IC50 [7]: 460 µM | IC50 [8]: 300 µM | IC50 [9]: 430 µM | IC50 [10]: 450 µM | IC50 [11]: 530 µM | IC50 [12]: 580 µM | IC50 [13]: 670 µM | IC50 [14]: 370 µM | IC50 [15]: 300 µM | IC50 [16]: 300 µM | IC50 [17]: 650 µM | IC50 [18]: 400 µM | IC50 [19]: 580 µM | IC50 [20]: 300 µM

inhibition ([21]; A549, A549 tumor grown in vivo): 52% | decrease of EZH2 enzyme activity/inhibition rate ([21]; A549 tumor grown in vivo): 53%*(A549)- | inhibition ([21]; MCF7, MCF7 tumor grown in vivo): 52% | decrease of EZH2 enzyme activity/inhibition rate ([21]; MCF7 tumor grown in vivo): 53%*(MCF7) | decrease of EZH2 enzyme activity/inhibition rate ([21]; MDA-MB231 tumor grown in vivo): 55%*(MDA-MB231) | inhibition ([21]; MDA-MB-231, MDA-MB231 tumor grown in vivo): 54% | decrease of EZH2 enzyme activity/inhibition rate ([21]; SMMC7721 tumor grown in vivo): 49%*(SMMC-7721); and 49%*(SMMC7721); | inhibition ([21]; SMMC-7721, SMMC7721 tumor grown in vivo): 48% | inhibition [22]: 50%
SMILES: O=C(CCCCCCC(=O)Nc1ccccc1)NO [SAHA, suberoylanilide hydroxamic acid, reference compound]
